For the assay, the target named is T1, OBR (Homo sapiens, UniProt P48357).
T1 sequence (P48357 22-1165): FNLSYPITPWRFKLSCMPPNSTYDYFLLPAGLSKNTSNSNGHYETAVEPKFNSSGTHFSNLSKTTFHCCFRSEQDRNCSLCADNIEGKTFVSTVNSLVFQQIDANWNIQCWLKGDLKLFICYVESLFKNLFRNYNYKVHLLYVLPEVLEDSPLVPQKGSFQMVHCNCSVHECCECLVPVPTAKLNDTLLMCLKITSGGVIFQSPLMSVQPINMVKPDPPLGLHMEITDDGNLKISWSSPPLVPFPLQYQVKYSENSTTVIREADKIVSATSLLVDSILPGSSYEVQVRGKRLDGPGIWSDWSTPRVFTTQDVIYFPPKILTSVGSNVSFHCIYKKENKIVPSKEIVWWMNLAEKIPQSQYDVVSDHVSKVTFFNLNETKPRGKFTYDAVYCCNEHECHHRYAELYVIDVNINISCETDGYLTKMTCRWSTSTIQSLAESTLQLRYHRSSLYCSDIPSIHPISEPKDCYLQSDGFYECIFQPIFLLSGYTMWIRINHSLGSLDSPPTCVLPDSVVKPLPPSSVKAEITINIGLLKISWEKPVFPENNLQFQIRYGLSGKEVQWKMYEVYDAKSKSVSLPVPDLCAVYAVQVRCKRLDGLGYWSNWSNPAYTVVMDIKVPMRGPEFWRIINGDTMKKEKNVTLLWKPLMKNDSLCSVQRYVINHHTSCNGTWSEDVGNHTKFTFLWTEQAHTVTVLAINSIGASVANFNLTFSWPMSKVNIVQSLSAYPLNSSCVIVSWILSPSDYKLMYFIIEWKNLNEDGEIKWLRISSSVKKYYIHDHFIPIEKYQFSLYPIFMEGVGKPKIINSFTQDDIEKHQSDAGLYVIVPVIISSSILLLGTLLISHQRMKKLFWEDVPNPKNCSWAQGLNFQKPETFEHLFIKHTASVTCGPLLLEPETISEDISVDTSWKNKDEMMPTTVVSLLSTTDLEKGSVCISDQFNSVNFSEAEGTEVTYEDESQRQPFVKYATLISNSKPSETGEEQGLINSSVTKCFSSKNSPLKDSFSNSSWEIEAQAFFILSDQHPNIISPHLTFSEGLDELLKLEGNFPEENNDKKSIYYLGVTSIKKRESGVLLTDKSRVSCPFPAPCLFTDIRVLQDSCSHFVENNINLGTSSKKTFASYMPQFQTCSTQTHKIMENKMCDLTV
The assay can be described thus: Bio-Layer Interferometry (BLI) binding to OBR. The source says:
FIG. 5. NRP-1, OBR and leptin interactions confirmation using a Bio-Layer Interferometry (BLI) technology (fortebio.com/bli-technology.html): A-Leptin (OB) interaction to OBR is used as a positive control. Human neuropilin-1 (hNRP-1) interact with human OBR with a high affinity and specifically with human leptin (hOB) but not with murine leptin (mOB). VEGF165 binding to hNRP-1 is used as a positive control. B-Leptin and Avastin association increases MDA-MB231 cells transmigration through […] pore Insert. Avastin treatment may prevent a negative feedback control by VEGF of the pro-angiogenic signaling pathway of Leptin. VEGF binds to OBR which confirms our hypothesis that should be more investigated.
A general note: Biolayer interferometry detects binding as a change in optical thickness at a sensor tip.

For VEGF, the “binding to OBR” value is “binds”.

The values are drawn from US11629192B2, “Methods and pharmaceutical compositions for the treatment of diseases mediated by the NRP-1/OBR complex signaling pathway” (INSERM (Institut National de la Sante et de la Recherche …, priority 2014, dated 2023).
